Source: patent US20050222146A1, “N-substituted-n-sulfonylaminocyclopropane compounds and pharmaceutical use thereof” (priority 2003, published 2005)

What was measured:
aggrecanase-1 = molecular target: T1, aggrecanase-1 (Homo sapiens, UniProt O75173); assay: Aggrecanase-1 inhibitory action, Particle Assay (GAG release from aggrecan-containing polyacrylamide particles); assay type: biochemical; conditions: 37° C. for 15 hr, read-out: Experimental Example 1 IC50 AG1
T1 sequence (O75173 213-837): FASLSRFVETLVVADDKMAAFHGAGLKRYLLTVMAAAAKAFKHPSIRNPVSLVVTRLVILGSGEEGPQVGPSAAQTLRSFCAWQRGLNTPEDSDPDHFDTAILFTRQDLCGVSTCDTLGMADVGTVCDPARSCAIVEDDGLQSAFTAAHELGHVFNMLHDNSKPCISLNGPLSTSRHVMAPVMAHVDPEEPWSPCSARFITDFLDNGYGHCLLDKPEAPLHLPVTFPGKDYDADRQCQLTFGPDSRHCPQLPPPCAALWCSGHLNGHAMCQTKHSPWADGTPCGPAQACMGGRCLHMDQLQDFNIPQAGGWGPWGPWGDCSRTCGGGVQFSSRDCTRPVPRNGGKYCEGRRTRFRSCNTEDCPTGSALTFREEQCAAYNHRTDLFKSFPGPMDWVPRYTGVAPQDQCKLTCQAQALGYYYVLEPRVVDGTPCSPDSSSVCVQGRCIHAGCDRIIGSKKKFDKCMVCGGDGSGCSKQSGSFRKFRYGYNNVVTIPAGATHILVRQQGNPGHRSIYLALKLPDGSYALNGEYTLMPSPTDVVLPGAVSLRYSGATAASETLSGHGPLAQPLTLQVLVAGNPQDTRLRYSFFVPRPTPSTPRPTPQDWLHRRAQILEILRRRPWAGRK
Description: Aggrecanase-1 Inhibitory Action
Particle Assay was used for determination of aggrecanase activity.
(§1) The enzyme and substrate were diluted with Tris-HCl buffer, and test compounds were diluted with dimethyl sulfoxide (DMSO).
Test compounds and the enzyme were added into 96-well plate, and polyacrylamide particles containing aggrecan were added as a substrate and the mixture was incubated at 37° C. for 15 hr.
After incubation; the supernatant was transferred to another plate, and mixed with 1,9-dimethylmethylene blue. The absorbance at 595 nm was measured to quantify the amount of glycosaminoglycan (GAG) released in the reaction supernatant. Whale chondroitin sulfate was used as the standard of GAG. The inhibitory activity of the compound in each well (%) was calculated based on the values of enzyme-free well and inhibitor-free well. The inhibitory activity of the compound was represented as IC50 (μM).

MMP-1 = molecular target: T2, MMP-1 (Homo sapiens, UniProt P03956); assay: MMP-1 inhibitory action, Type I collagen Activity Measurement kit (FITC-labeled collagen type I); assay type: biochemical; conditions: 37° C. for 3 hr, read-out: Experimental Example 2 IC50 MMP1
T2 sequence (P03956 100-469): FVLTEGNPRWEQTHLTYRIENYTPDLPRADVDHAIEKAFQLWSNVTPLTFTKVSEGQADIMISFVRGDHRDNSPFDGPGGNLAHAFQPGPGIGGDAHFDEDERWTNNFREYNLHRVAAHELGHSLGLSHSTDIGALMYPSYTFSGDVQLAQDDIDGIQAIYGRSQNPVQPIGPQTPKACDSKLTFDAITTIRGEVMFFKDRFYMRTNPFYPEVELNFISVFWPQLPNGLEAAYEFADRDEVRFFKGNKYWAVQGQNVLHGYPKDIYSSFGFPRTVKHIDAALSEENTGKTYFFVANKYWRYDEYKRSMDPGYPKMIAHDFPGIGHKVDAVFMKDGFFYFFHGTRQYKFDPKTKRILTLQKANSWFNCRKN
Description: For MMP-1 Assay, Type I collagen Activity Measurement kit (YAGAI YU-72013) modified to a 96-well plate format was used.
The principle of the kit is based on the property of collagen that becomes soluble in ethanol after being cleaved by MMP-1.
as §1
The enzyme and test compounds were added into 96-well plate, and fluorescein isothiocianate (FITC)-labeled collagen type I was added as a substrate and the mixture was incubated at 37° C. for 3 hr.
The reaction was terminated by addition of Tris-HCl buffer containing ethanol. After centrifugation, the supernatant containing denatured substrate was transferred to another 96-well plate. The collagenase activity of MMP-1 was determined by measuring FITC fluorescence intensity (excitation wavelength 485 nm, emission wavelength 530 nm) of each well. The inhibitory activity of the compound in each well (%) was calculated based on the values of enzyme-free well and inhibitor-free well. The inhibitory activity of the compound was represented as IC50 (μM).

Compound	IC50 (aggrecanase-1) [µM]	IC50 (MMP-1) [µM]
CC(C)COc1cccc([C@@H]2C[C@@]2(C(=O)O)N(CC(=O)O)S(=O)(=O)c2ccc(-c3ccc(Cl)cc3)cc2)c1 (relative stereo) [Example 1-47, (1R*,2S*)-1-[carboxymethyl-(4′-chloro-biphenyl-4-sulfonyl)-amino]-2-(3-isobutoxy-phenyl)-cyclopropanecarboxylic acid]	< 0.1	≥ 10
O=C(O)CN([C@]1(C(=O)O)C[C@H]1c1cccc(OC2CCCCC2)c1)S(=O)(=O)c1ccc(-c2ccc(Cl)cc2)cc1 (relative stereo) [Example 1-48, (1R*,2S*)-1-[carboxymethyl-(4′-chloro-biphenyl-4-sulfonyl)-amino]-2-(3-cyclohexyloxy-phenyl)-cyclopropanecarboxylic acid]	< 0.1	≥ 10
O=C(O)c1cccc(CN([C@]2(C(=O)O)C[C@H]2c2cccc(Oc3ccccc3)c2)S(=O)(=O)c2ccc(-c3ccc(Cl)cc3)cc2)c1 (relative stereo) [Example 1-51, (1R*,2S*)-3-{[[1-carboxy-2-(3-phenoxy-phenyl)-cyclopropyl]-(4′-chloro-biphenyl-4-sulfonyl)-amino]-methyl}-benzoic acid]	< 0.1	≥ 10
CCOC(=O)CN([C@]1(C(=O)O)C[C@H]1c1cccc(Oc2ccccc2)c1)S(=O)(=O)c1ccc(-c2ccc(Cl)cc2)cc1 (relative stereo) [Example 1-52, (1R*,2S*)-1-[(4′-chloro-biphenyl-4-sulfonyl)-ethoxycarbonylmethyl-amino]-2-(3-phenoxy-phenyl)-cyclopropanecarboxylic acid]	< 1	≥ 10
CN([C@]1(C(=O)O)C[C@H]1c1cccc(Oc2ccccc2)c1)S(=O)(=O)c1ccc(-c2ccc(Cl)cc2)cc1 (relative stereo) [Example 1-53, (1R*,2S*)-1-[(4′-chloro-biphenyl-4-sulfonyl)-methyl-amino]-2-(3-phenoxy-phenyl)-cyclopropanecarboxylic acid]	< 1	≥ 10
O=C(O)c1ccc(CN([C@]2(C(=O)O)C[C@H]2c2ccccc2)S(=O)(=O)c2ccc(-c3ccc(Cl)cc3)cc2)o1 (relative stereo) [Example 1-55, 5-{[((1R*,2S*)-1-carboxy-2-phenyl-cyclopropyl)-(4′-chloro-biphenyl-4-sulfonyl)-amino]-methyl}-furan-2-carboxylic acid]	< 1	≥ 10
O=C(O)c1cccnc1CN([C@]1(C(=O)O)C[C@H]1c1ccccc1)S(=O)(=O)c1ccc(-c2ccc(Cl)cc2)cc1 (relative stereo) [Example 1-56, 2-{[((1R*,2S*)-1-carboxy-2-phenyl-cyclopropyl)-(4′-chloro-biphenyl-4-sulfonyl)-amino]-methyl}-nicotinic acid]	< 1	≥ 10
O=C(O)c1csc(CN([C@]2(C(=O)O)C[C@H]2c2ccccc2)S(=O)(=O)c2ccc(-c3ccc(Cl)cc3)cc2)n1 (relative stereo) [Example 1-60, 2-{[((1R*, 2S*)-1-carboxy-2-phenyl-cyclopropyl)-(4′-chloro-biphenyl-4-sulfonyl)-amino]-methyl}-thiazole-4-carboxylic acid]	< 1	≥ 10
O=C(CN([C@]1(C(=O)O)C[C@H]1c1ccccc1)S(=O)(=O)c1ccc(-c2ccc(Cl)cc2)cc1)Nc1nnn[nH]1 (relative stereo) [Example 1-61, (1R*,2S*)-1-{(4′-chloro-biphenyl-4-sulfonyl)-[(1H-tetrazol-5-ylcarbamoyl)-methyl]-amino}-2-phenyl-cyclopropanecarboxylic acid]	< 1	≥ 10
CS(=O)(=O)Nc1cccc(CN([C@]2(C(=O)O)C[C@H]2c2ccccc2)S(=O)(=O)c2ccc(-c3ccc(Cl)cc3)cc2)c1 (relative stereo) [Example 1-62, (1R*,2S*)-1-[(4′-chloro-biphenyl-4-sulfonyl)-(3-methanesulfonylamino-benzyl)-amino]-2-phenyl-cyclopropanecarboxylic acid]	< 1	≥ 10
O=C(O)[C@@]1(N(CCNS(=O)(=O)C(F)(F)F)S(=O)(=O)c2ccc(-c3ccc(Cl)cc3)cc2)C[C@H]1c1ccccc1 (relative stereo) [Example 1-63, (1R*,2S*)-1-[(4′-chloro-biphenyl-4-sulfonyl)-(2-trifluoromethanesulfonylamino-ethyl)-amino]-2-phenyl-cyclopropanecarboxylic acid]	< 1	≥ 10
O=C(O)CN([C@]1(C(=O)O)C[C@H]1c1cccc(O)c1)S(=O)(=O)c1ccc(-c2ccc(Cl)cc2)cc1 (relative stereo) [Example 1-66, (1R*,2S*)-1-[carboxymethyl-(4′-chloro-biphenyl-4-sulfonyl)-amino]-2-(3-hydroxy-phenyl)-cyclopropanecarboxylic acid]	< 0.1	≥ 10
CC(C)(C)OC(=O)N1CCC(Oc2cccc([C@H]3C[C@]3(C(=O)O)N(CC(=O)O)S(=O)(=O)c3ccc(-c4ccc(Cl)cc4)cc3)c2)CC1 (relative stereo) [Example 1-67, 4-(3-{(1R*,2S*)-2-Carboxy-2-[carboxymethyl-(4′-chloro-biphenyl-4-sulfonyl)-amino]-cyclopropyl}-phenoxy)-piperidine-1-carboxylic acid tert-butyl ester]	< 0.1	≥ 10
O=C(O)CN([C@]1(C(=O)O)C[C@H]1c1cccc(OC2CCNCC2)c1)S(=O)(=O)c1ccc(-c2ccc(Cl)cc2)cc1 (relative stereo) [Example 1-68, (1R*,2S*)-1-[carboxymethyl-(4′-chloro-biphenyl-4-sulfonyl)-amino]-2-[3-(piperidin-4-yloxy)-phenyl]-cyclopropanecarboxylic acid]	< 1	≥ 10
O=C(O)c1cccn1CCN([C@]1(C(=O)O)C[C@H]1c1ccccc1)S(=O)(=O)c1ccc(-c2ccc(Cl)cc2)cc1 (relative stereo) [Example 1-69, 1-{2-[((1R*,2S*)-1-carboxy-2-phenyl-cyclopropyl)-(4′-chloro-biphenyl-4-sulfonyl)-amino]-ethyl}-1H-pyrrole-2-carboxylic acid]	< 1	≥ 10
CC(C)(C)OC(=O)N1CCC([C@H]2C[C@]2(C(=O)O)N(Cc2cccc(C(=O)O)c2)S(=O)(=O)c2ccc(-c3ccc(Cl)cc3)cc2)CC1 (relative stereo) [Example 1-70, 4-{(1R*,2S*)-2-carboxy-2-[(3-carboxy-benzyl)-(4′-chloro-biphenyl-4-sulfonyl)-amino]-cyclopropyl}-piperidin-1-carboxylic acid tert-butyl ester]	< 1	≥ 10
O=C(O)[C@@]1(N(Cc2nsc(=O)[nH]2)S(=O)(=O)c2ccc(-c3ccc(Cl)cc3)cc2)C[C@H]1c1ccccc1 (relative stereo) [Example 1-71, (1R*,2S*)-1-[(4′-chloro-biphenyl-4-sulfonyl)-(5-oxo-4,5-dihydro-[1,2,4]thiadiazol-3-ylmethyl)-amino]-2-phenyl-cyclopropanecarboxylic acid]	< 1	≥ 10
O=C(O)[C@@]1(N(Cc2noc(=O)[nH]2)S(=O)(=O)c2ccc(-c3ccc(Cl)cc3)cc2)C[C@H]1c1cccc(Oc2ccccc2)c1 (relative stereo) [Example 1-72, (1R*,2S*)-1-[(4′-chloro-biphenyl-4-sulfonyl)-(5-oxo-4,5-dihydro-[1,2,4]oxadiazol-3-ylmethyl)-amino]-2-(3-phenoxy-phenyl)-cyclopropanecarboxylic acid]	< 0.1	≥ 10
